The values below come from PubChem BioAssay (NCI).

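Protocol summary: plate cells (96-well), add compound at 5 concentrations, incubate 48 h, interpolate endpoints linearly. Definition used: TGI = concentration required for complete inhibition of growth.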

The TGI is the concentration at which net growth stops. Low readings indicate greater sensitivity of the cells, high ones lower sensitivity of the cells.

Holding throughout (test): DTP human tumour cell line panel, 48 h
Test [1] relates to SNB-19 CNS.
The test system of test [2] is OVCAR-4 ovarian.
In test [3] the test system is MCF7 breast.
Test [4] deals with NCI-H460 lung.
Test [5] has as its system SK-OV-3 ovarian.
Test [6] concerns MALME-3M melanoma.
Test [7] concerns K-562 leukemia.
Test [8] relates to MDA-MB-435.
In test [9] the test system is RXF 393 renal.
The subject of test [10] is TK-10 renal.
Test [11] deals with COLO 205 colon.
Test [12] deals with SNB-75 CNS.
The subject of test [13] is HT29 colon.
The test system of test [14] is NCI-H226 lung.
The test system of test [15] is SK-MEL-2 melanoma.
Test [16] has as its system HCT-15 colon.

Consider `CC(=O)NC1(NC(C)=O)C2CC(C1Cc1ccccc1)C(C)(C)C2C` (stereo not given), for which the TGI in test [1], in test [2], in test [3], in test [4], in test [5] and in test [6] was above 100 µM in each case. The TGI in test [7], in test [8], in [9], in test [10], in [11] and in test [12] was above 100 µM throughout. Further, the concentration for total growth inhibition (TGI) in test [13] and in test [14] was above 100 µM in each case.
On to `COC(=O)CCC1(CCC(=O)OC)CCCCCCC(CCC(=O)OC)(CCC(=O)OC)C(=O)C1=O`, for which the TGI in [1], in [3], in test [4], in [5], in [6] and in [7] was above 100 µM each time. Moreover, the TGI in [8], in test [9], in test [15], in [16], in [10] and in [11] was above 100 µM throughout. For the same molecule, the TGI in [12], in [13] and in test [14] was above 100 µM throughout.
Turning to `CC(=O)c1cccc(NC(=O)C(=O)c2c(O)c3ccccc3oc2=O)c1`, the TGI in test [1], in [2], in [3], in [4], in [5] and in test [6] was above 100 µM each time. Further, the TGI in test [7], in test [8], in [9], in [16], in test [10] and in test [12] was above 100 µM each time. For the same molecule, the TGI in test [13] and in [14] was above 100 µM each time.
As for `COc1cc(C(=O)Oc2c(C(C)=O)sc3c2c(=O)n(-c2ccccc2)c(=S)n3-c2ccccc2)cc(OC)c1OC`, the TGI in [1] is 68 µM; in test [2], 64.2 µM; in test [3], 44.8 µM; in test [4] it was 29.8 µM; in test [5], above 100 µM; in test [6], 27.8 µM. For the same molecule, the TGI was above 100 µM in [7]; 54.8 µM in [8]; 41.6 µM in test [9]; 44.1 µM in test [16]; above 100 µM in [10]; 30.6 µM in test [11]. Also, the values for the TGI in test [12], in test [13] and in test [14] were 50.1 µM, 32.8 µM and 25.9 µM, respectively.
Turning to `CC(C)(C)OC(=O)N1NC(c2ccccc2)CC1c1ccccc1` (stereo not given), the total growth inhibition concentration (TGI) in test [3] was 61 µM; in [4], above 100 µM; in test [5], above 100 µM; in test [7], above 100 µM; in [8] it was 65.3 µM; in test [9], 58.4 µM. Moreover, the TGI is 60.1 µM in [16]; above 100 µM in test [10]; 41.2 µM in test [11]; 76.7 µM in test [12]; above 100 µM in test [13]; 88.2 µM in test [14].
Consider `COC(=O)C1Cc2c(OC)ccc(OC)c2C(O)C1C(=O)OC` (stereo not given), for which the TGI in test [1], in test [2], in [3], in test [4], in [6] and in test [7] was above 100 µM in each case. Further, the TGI in [8], in test [9], in [15], in [10], in [11] and in [12] was above 100 µM in each case. Moreover, the TGI in [13] and in [14] was above 100 µM throughout.
In the case of `COc1ccc(-c2c(-c3ccc(OC)cc3)n3c(=O)n(C)c(=O)n23)cc1`, the TGI in test [1] was 97.7 µM; in test [2], above 100 µM; in test [3] it was above 100 µM; in test [5], above 100 µM; in test [6], above 100 µM; in [7], above 100 µM. The TGI in test [8], in [9], in test [15], in test [16], in [10] and in [11] was above 100 µM in each case. Further, the TGI in [12] and in test [14] was above 100 µM in each case.
In the case of `CC1(C)CC(=O)c2c(nc3c(ccc4ccccc43)c2-c2ccc(NC(=O)CCC(=O)Nc3ccc(-c4c5c(nc6c4ccc4ccccc46)CC(C)(C)CC5=O)cc3)cc2)C1`, the concentration for total growth inhibition (TGI) in test [1], in [3], in test [4], in test [5], in test [7] and in test [8] was above 100 µM in each case. Further, the TGI in test [9], in [15], in [16], in test [10], in test [11] and in test [12] was above 100 µM each time. In addition, the TGI in test [13] and in test [14] was above 100 µM each time.
In the case of `FC(F)(F)c1ccc2c(c1)nc1n2C(c2c(Cl)cccc2Cl)SC1` (stereo not given), the TGI in [1] is 48.7 µM; in test [2], 43.4 µM; in [3] it was 55.2 µM; in test [4], 35 µM; in [5], 85.9 µM; in test [6] it was 42.1 µM. The TGI in [8] turned out to be 41.4 µM; in test [9], 28.7 µM; in test [15] it was 40.8 µM; in test [16], 50.9 µM; in test [10] it was 47 µM; in test [12], 45.1 µM. The figures for the TGI in [13] and in [14] were 31.9 µM and 58.2 µM, respectively.
With `COc1ccc2cc(CNCCCCCCCCNCc3ccc4cc(OC)ccc4c3)ccc2c1`, the TGI in [1] was 7.83 µM; in test [2], 9.55 µM; in [3] it was above 100 µM; in test [4] it was 33.9 µM; in test [7], 47.7 µM; in test [8], 9.83 µM. Moreover, the TGI in test [9] is above 100 µM; in [15], 24.7 µM; in test [16], above 100 µM; in [10], 5.2 µM; in [11] it was 29.6 µM; in [12], 11.1 µM. The TGI in [13] was 8.46 µM; in test [14], above 100 µM.
